Measurements from patent US8822535B2 (priority 2005, dated 2014).
Where two headings read alike, the source gives them in different places.

What was measured:
mice [1] = system: mice
From the text: Female C57BL/6J mice (Jackson Laboratories—Bar Harbor, Me.) were implanted with telemetry devices (PDT-4000 HR E-Mitter—MiniMitter Inc.—Bend, Oreg.) according to standard protocol provided by the manufacturer. Mice were allowed to recover for several weeks to permit body temperature and heart rate signals to stabilize. Core body temperature, heart rate, and movement of the mice were continuously monitored via the telemetry devices and recorded using VitalView software (provided by MiniMitter). Ambient temperature was monitored using a HOBO (Onset Computer Corp. —Pocasset, Mass.) and the data analyzed using BoxCar software (provided by Onset Computer Corp.).
Prior to and during exposure to testing in regulated and unregulated atmospheres, the mice were placed in a gassing chamber comprising a glass cage (with drinking water and no food) fitted with import and export tubes of FEP tubing from Cole-Parmer (Vernon Hills, Ill.) for introduction and venting of the atmosphere. The cage was sealed with a lid using Dow Corning silicone vacuum grease (Sigma—St. Louis, Mo.). The gas from each cage was vented through the export tube into the chemical hood. To ensure that the system was gas-tight, a GasTech GT portable monitor was used to detect leaks.
In some experiments, the consumption of oxygen was measured by use of a PA-10a O2 analyzer (Sable Systems) which was used according to manufacturers instructions. Similarly, the carbon dioxide being produced by the animals was monitored using a LI-7000 CO2/H2O analyzer (Li-Cor company) used according to the manufacturers instructions. These instruments were placed in line with the environmental chambers such that they sample the gas import and export tubing.
Mice were housed in a Shel Lab low temperature diurnal illumination incubator (Sheldon Manufacturing Inc. —Cornelius, Oreg.) to regulate both temperature and light cycle (8 AM lights on, 8 PM lights off) for the mice. Mice were exposed to regulated atmosphere as described above. When the mice were exposed to the regulated atmosphere, the temperature inside the incubator was dropped to the desired temperature, for example, to 10° C. or 15° C. The mice were maintained in the regulated atmosphere and at the lowered temperature for six hours. The atmosphere in the gassing chamber was replaced with room air and the mice were returned to normal room temperature (22° C.) and allowed to recover.
To test this hypothesis, the inventor wanted to continuously monitor both the core body temperature and the activity levels of a homeothermic animal (a mouse).

mice [2] = type: in vivo, mouse (C57Bl/6)
[3] = 80 ppm H2S, 15 minutes, 0.5 L chamber

S [H2S, hydrogen sulfide]
core body temperature reached repeatedly (mice [1]; 80 ppm): 13-15 °C | reduction in carbon dioxide production (mice [1]; 80 ppm H2S (FIG. 4A)): approximately 3 fold | drop in carbon dioxide production (mice [1]; [3]): 3-4 fold | drop in oxygen consumption (mice [1]; [3]): 2-3 fold | heart rate (mice [1]; 80 ppm, 3 hrs, dropped from 600 bpm): 250 bpm | lowest core body temperature recorded (mice [1]; 80 ppm, ambient temperature dropped to less than 10° C. (FIG. 7)): 10.7 °C | core temperature (mice [1]; 80 ppm, cabinet 10° C., telemetry mouse, estimation from slope after electronics failed at 15.3° C.): approximately 12.5 °C | core body temperature (mice [1]; 80 ppm, cabinet 10.5° C., approximately six hours): 10.5 °C | decrease in cellular respiration (mice [1]; 80 ppm, core temperature 15° C.): 1-20 fold | breathing (mice [1]; 80 ppm, core temperature dropped to 15° C.): 1-10 breaths per minute | core temperature (mice [1]; 80 ppm, incubator 18° C., 90 min): 28.6 °C | core temperature (mice [1]; 80 ppm, incubator 18° C., 3 hrs): 18.6 °C | Consumption of oxygen (mice [1]; H2S (80 ppm) present): 1300 ppm | production of carbon dioxide (mice [1]; H2S (80 ppm) present): 750 ppm | RQ (mice [1]; mouse, in vivo): 0.58 | behavior of the animals (mice [1]; mouse, in vivo): no apparent change in the behavior | behavior tests (SHIRPA protocol) (mice [1]; mouse, in vivo): no detectable behavioral differences | lowest average core body temperature (mice [1]; seven mice, 80 ppm, 6 hrs, ambient temperature 13° C.): 15 °C | drop in CO2 production during hypoxia from pre-exposure level (mice [2]; 150 ppm H2S 20 minutes, then 5% O2 for several hours (FIG. 25)): approximately 50 fold | CO2 output (mice [2]; 150 ppm H2S 20 minutes, then several hours of 5% O2, pre-exposure approximately 2500 ppm): approximately 50 ppm | survival time at lethal oxygen tensions (mice [2]; 150 ppm H2S prior to oxygen tension reduced to between 5% and 2.5% (FIG. 24)): at least 60 minutes | reduction in CO2 evolution (mice [2]; pre-treatment with H2S, new lower baseline): 50-60%
